Laboratory results taken from ChEMBL document CHEMBL3526031, “Mechanistic studies on the absorption and disposition of scutellarin in humans: selective OATP2B1-mediated hepatic uptake is a likely key determinant for its unique pharmacokinetic characteristics” (Drug Metab Dispos, 2012).

Assays:
Liver microsome [1] = test: Drug metabolism in rat liver microsomes assessed as formation of scutellarein-6,7-diglucuronide after 7 mins by HPLC/UV analysis; type: ADME; conditions: for Km / Vmax: rat, microsomes, 7 min
[2] = target: T1, ATP-binding cassette sub-family C member 3 (Homo sapiens, UniProt O15438); test: Inhibition of human MRP3-mediated estradiol-17beta-D-glucuronide formation using inside-out membrane vesicles by LC-MS/MS analysis
T1 sequence (O15438 whole entry): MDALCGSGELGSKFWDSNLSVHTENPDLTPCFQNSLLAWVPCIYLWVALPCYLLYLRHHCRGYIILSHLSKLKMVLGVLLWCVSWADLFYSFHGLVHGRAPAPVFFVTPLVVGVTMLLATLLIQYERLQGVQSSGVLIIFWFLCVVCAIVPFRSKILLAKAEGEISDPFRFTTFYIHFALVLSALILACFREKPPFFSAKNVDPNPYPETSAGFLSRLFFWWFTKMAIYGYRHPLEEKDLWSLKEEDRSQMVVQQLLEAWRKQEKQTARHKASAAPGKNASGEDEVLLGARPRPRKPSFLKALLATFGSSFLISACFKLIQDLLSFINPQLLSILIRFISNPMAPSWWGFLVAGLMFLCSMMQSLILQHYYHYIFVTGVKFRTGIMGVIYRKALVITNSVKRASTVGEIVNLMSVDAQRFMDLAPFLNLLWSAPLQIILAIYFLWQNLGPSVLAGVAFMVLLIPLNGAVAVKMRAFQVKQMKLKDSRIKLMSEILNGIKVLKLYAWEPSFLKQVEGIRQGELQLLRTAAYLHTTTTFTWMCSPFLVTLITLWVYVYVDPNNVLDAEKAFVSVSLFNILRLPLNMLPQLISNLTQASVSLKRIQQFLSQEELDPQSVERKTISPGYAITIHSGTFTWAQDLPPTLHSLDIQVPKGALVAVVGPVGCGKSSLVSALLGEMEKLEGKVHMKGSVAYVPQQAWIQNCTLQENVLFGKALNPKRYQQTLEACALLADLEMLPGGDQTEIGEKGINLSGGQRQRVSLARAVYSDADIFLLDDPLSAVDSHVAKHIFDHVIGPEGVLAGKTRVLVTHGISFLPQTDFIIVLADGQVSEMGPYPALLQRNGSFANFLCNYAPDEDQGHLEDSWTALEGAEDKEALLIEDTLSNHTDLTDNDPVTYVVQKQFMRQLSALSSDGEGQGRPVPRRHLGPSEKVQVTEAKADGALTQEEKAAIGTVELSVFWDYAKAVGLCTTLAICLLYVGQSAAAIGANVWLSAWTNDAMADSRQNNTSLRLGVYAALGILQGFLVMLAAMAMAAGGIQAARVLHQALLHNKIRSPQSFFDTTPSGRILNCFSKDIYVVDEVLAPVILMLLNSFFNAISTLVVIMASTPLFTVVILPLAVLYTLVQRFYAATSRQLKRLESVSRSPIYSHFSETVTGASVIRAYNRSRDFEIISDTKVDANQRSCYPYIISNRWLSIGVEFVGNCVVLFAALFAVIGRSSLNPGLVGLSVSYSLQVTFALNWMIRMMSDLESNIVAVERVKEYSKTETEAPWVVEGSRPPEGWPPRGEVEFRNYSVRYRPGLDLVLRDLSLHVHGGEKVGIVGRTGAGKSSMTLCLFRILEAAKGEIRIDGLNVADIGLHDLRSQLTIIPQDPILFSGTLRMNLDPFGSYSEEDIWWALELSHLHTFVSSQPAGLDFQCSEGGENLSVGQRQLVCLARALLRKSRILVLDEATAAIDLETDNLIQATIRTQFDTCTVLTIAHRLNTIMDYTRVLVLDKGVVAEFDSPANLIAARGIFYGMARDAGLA

[3] = target: T2, Broad substrate specificity ATP-binding cassette transporter ABCG2 (Homo sapiens, UniProt Q9UNQ0); test: Inhibition of human BCRP-mediated methotrexate transport using inside-out membrane vesicles by LC-MS/MS analysis; type: ADME
T2 sequence (Q9UNQ0 whole entry): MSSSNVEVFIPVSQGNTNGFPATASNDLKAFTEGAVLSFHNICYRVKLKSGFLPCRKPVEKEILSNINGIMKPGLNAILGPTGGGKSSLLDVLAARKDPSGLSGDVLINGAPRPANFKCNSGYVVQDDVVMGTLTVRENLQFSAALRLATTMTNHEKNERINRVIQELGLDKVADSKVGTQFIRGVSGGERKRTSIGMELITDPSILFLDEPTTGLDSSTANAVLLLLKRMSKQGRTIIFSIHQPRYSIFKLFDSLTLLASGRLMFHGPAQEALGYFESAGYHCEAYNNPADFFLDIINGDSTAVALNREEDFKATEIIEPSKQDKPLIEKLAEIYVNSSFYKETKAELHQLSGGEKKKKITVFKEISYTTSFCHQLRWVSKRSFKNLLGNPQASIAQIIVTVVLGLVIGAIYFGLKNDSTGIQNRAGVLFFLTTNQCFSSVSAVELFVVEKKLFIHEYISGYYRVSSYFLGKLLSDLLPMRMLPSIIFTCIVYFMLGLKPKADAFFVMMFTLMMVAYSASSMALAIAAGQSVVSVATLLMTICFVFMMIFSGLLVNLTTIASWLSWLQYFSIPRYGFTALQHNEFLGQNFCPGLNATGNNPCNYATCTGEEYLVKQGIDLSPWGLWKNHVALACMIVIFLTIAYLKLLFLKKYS

Liver microsome [4] = test: Ratio of Vmax to Km for drug metabolism in human liver microsomes assessed as formation of scutellarein-6,7-diglucuronide after 7 mins by HPLC/UV analysis; type: ADME
[5] = target: T3, ATP-binding cassette sub-family C member 2 (Homo sapiens, UniProt Q92887); test: Inhibition of human MRP2-mediated estradiol-17beta-D-glucuronide formation using inside-out membrane vesicles by LC-MS/MS analysis
T3 sequence (Q92887 whole entry): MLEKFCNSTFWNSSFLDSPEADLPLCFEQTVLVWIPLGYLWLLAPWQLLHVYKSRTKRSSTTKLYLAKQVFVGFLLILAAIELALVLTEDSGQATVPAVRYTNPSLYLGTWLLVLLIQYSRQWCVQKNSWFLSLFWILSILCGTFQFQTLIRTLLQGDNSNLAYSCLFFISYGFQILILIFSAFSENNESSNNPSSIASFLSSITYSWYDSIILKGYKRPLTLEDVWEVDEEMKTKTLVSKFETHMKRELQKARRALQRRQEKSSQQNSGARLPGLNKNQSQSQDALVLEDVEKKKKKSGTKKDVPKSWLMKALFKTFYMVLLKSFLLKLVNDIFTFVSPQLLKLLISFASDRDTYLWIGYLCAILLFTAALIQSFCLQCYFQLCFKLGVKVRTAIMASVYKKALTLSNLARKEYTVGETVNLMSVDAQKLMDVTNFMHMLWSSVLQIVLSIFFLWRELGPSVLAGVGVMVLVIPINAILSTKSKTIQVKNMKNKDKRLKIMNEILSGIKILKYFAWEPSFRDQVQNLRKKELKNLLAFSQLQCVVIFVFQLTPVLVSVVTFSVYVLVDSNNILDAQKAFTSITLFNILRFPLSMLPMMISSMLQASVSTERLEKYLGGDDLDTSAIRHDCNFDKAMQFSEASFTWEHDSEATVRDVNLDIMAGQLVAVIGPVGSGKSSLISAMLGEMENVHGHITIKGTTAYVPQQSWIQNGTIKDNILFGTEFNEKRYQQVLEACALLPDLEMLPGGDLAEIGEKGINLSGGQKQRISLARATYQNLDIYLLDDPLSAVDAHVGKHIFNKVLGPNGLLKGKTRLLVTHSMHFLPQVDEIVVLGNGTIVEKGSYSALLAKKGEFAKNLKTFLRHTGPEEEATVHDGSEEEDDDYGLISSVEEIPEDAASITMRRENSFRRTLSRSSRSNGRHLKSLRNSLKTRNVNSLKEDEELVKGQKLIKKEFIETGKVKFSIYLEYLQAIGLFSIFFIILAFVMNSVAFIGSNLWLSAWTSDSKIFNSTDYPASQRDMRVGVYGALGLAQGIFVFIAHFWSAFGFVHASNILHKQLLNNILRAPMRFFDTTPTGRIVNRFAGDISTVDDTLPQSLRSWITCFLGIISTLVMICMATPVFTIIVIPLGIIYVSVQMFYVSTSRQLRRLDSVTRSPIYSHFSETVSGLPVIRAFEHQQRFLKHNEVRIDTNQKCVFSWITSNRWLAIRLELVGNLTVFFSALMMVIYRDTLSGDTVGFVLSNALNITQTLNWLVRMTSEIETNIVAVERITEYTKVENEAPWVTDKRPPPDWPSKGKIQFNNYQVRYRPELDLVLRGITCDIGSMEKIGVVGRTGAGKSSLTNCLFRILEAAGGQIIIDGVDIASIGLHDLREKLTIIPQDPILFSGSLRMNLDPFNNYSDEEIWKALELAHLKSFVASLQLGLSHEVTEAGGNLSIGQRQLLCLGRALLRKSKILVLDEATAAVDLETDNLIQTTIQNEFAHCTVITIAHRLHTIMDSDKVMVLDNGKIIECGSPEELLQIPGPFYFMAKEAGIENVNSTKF

Liver microsome [6] = test: Drug metabolism in human liver microsomes assessed as formation of scutellarein-6,7-diglucuronide after 7 mins by HPLC/UV analysis; type: ADME; conditions: for Km / Vmax: human, microsomes, 7 min
[7] = Ratio of Vmax to Km for drug metabolism in human intestinal microsomes assessed as formation of scutellarein-6,7-diglucuronide after 7 mins by HPLC/UV analysis; type: ADME, Intestine, Microsome
[8] = target: T1, ATP-binding cassette sub-family C member 3; test: Drug uptake assessed as human MRP3-mediated drug transport using inside-out membrane vesicles by measuring +ATP/-ATP ratio by LC-MS/MS analysis; type: ADME
[9] = Ratio of Vmax to Km for drug metabolism in rat intestinal microsomes assessed as formation of scutellarein-6,7-diglucuronide after 7 mins by HPLC/UV analysis; type: ADME, Intestine, Microsome
[10] = target: T4, UDP-glucuronosyltransferase 1A10 (Homo sapiens, UniProt Q9HAW8); test: Drug metabolism assessed as human recombinant UGT1A10-mediated formation of scutellarein-6,7-diglucuronide after 25 mins by HPLC/UV analysis; type: ADME
T4 sequence (Q9HAW8 whole entry): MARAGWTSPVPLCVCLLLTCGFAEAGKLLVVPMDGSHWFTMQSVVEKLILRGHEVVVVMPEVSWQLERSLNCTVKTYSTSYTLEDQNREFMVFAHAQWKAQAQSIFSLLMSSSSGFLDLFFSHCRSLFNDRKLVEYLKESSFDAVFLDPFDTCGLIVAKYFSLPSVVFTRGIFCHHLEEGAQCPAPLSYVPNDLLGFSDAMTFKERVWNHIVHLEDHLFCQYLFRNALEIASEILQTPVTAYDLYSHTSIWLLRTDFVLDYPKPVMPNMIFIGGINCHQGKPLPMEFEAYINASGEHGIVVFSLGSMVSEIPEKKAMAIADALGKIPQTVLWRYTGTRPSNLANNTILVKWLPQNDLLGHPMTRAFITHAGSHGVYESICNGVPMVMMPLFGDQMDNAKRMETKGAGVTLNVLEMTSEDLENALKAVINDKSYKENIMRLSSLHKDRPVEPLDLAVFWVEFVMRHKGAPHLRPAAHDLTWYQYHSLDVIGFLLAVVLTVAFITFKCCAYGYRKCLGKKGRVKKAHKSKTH

[11] = target: T3, ATP-binding cassette sub-family C member 2; test: Drug uptake assessed as human MRP2-mediated drug transport using inside-out membrane vesicles by measuring +ATP/-ATP ratio by LC-MS/MS analysis; type: ADME
[12] = target: ATP-dependent translocase ABCB1 (Homo sapiens, UniProt P08183); test: Inhibition of human MDR1-mediated N-methyl quinine formation using inside-out membrane vesicles by LC-MS/MS analysis; type: ADME
ATP-dependent translocase ABCB1, sequence (P08183 whole entry): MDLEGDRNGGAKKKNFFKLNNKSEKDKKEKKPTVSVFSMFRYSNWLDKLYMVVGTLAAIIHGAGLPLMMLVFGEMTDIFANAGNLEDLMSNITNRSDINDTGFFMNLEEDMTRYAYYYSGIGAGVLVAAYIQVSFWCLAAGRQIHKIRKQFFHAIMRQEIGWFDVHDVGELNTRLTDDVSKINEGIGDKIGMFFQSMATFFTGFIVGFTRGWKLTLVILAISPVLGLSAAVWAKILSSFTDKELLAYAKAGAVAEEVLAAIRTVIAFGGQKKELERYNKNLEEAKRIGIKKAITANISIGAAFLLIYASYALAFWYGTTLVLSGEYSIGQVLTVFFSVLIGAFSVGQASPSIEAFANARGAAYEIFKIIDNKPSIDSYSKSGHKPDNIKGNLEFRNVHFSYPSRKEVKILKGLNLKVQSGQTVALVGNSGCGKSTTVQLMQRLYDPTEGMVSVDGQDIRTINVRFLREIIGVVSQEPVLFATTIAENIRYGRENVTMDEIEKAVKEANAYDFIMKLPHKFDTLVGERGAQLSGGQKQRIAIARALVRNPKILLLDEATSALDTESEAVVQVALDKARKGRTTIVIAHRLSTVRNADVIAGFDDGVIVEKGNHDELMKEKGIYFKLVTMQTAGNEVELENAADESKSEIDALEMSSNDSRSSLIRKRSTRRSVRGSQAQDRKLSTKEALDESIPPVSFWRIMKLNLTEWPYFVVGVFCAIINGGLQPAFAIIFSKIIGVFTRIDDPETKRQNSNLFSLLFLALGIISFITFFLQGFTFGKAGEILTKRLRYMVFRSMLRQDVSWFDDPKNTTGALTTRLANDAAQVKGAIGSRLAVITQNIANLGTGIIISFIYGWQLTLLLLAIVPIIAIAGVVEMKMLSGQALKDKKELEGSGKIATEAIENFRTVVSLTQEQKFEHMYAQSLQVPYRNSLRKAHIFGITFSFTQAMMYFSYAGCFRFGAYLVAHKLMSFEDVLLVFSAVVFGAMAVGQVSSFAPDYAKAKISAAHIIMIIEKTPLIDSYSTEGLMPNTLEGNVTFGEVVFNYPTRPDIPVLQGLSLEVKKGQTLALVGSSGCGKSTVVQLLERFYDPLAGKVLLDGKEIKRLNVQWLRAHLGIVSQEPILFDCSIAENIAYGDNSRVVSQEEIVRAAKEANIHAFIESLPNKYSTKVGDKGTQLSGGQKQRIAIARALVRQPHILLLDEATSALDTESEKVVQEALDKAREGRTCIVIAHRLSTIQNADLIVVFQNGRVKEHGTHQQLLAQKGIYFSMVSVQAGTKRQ

OATP2B1 = target: T5, OATP2B1 (Homo sapiens, UniProt O94956); test: Drug uptake assessed as OATP2B1 (unknown origin)-mediated drug transport expressed in HEK293 cells by LC-MS/MS analysis relative to control; type: ADME, cell-based; conditions: HEK293 cells expressing OATP2B1
T5 sequence (O94956 whole entry): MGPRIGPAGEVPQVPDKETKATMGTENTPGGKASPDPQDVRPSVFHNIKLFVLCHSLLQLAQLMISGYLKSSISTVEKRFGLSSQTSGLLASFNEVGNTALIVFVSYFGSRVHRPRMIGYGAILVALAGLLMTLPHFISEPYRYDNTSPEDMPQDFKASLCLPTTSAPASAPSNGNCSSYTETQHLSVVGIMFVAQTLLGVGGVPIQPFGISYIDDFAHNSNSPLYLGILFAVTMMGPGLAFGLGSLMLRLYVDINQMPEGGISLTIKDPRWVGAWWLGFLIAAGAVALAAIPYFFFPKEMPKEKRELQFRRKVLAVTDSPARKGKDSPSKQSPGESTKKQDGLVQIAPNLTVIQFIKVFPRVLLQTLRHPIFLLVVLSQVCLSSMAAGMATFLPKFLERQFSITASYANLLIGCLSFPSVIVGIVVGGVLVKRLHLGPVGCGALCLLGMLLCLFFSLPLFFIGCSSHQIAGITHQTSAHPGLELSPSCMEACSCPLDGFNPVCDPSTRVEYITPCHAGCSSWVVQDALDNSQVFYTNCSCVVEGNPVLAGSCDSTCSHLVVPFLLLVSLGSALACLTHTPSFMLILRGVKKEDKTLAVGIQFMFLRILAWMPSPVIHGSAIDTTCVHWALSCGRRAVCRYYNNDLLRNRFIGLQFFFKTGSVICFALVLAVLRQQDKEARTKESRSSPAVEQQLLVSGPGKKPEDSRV

Liver microsome [13] = test: Ratio of Vmax to Km for drug metabolism in rat liver microsomes assessed as formation of scutellarein-6,7-diglucuronide after 7 mins by HPLC/UV analysis; type: ADME
[14] = target: T2, Broad substrate specificity ATP-binding cassette transporter ABCG2; test: Drug uptake assessed as human BCRP-mediated drug transport using inside-out membrane vesicles by measuring +ATP/-ATP ratio by LC-MS/MS analysis; type: ADME

| Vmax ([10]; human, recombinant enzyme, 25 min) | Compound | Ki (Liver microsome [1]) | Km (Liver microsome [1]) | Vmax (Liver microsome [1]) | inhibition (INH) [2] | IC50 [3] | Vmax/Km (Liver microsome [4]) | IC50 [5] | Ki (Liver microsome [6]) | Km (Liver microsome [6]) | Vmax (Liver microsome [6]) | Vmax/Km [7] | Ratio [8] | Vmax/Km [9] | Ki [10] | Ratio [11] | inhibition (INH) [12] | uptake ratio (OATP2B1) | Vmax/Km (Liver microsome [13]) | Ratio [14] |
| --- | --- | --- | --- | --- | --- | --- | --- | --- | --- | --- | --- | --- | --- | --- | --- | --- | --- | --- | --- | --- |
| – | O=C(O)[C@H]1O[C@@H](Oc2cc3oc(-c4ccc(O)cc4)cc(=O)c3c(O)c2O)[C@H](O)[C@@H](O)[C@@H]1O [SCUTELLARIN] | 302 µM | 15.2 µM | 3.1 nmol/min/mg | Not Active | 10 µM | 11.8 µL/min/mg | 75 µM | 133 µM | 62.4 µM | 0.736 nmol/min/mg | 18.5 µL/min/mg | 1.61 | 18.9 µL/min/mg | 208 µM | 3.07 | Active | 65 | 204 µL/min/mg | 57.5 |
| 0.221 nmol/min/mg | O=C(O)[C@H]1O[C@@H](Oc2c(O)cc3oc(-c4ccc(O)cc4)cc(=O)c3c2O)[C@H](O)[C@@H](O)[C@@H]1O | 78.3 µM | 21.2 µM | 1.94 nmol/min/mg | Active | 20 µM | 127 µL/min/mg | 50 µM | 24 µM | 123 µM | 15.6 nmol/min/mg | 110 µL/min/mg | 1.61 | 30 µL/min/mg | 242 µM | 3.07 | Active | 20.4 | 91.3 µL/min/mg | 57.5 |
